{"source": "patent US20110207801A1", "about": "“Novel Genes, Compositions, and Methods for Modulating the Unfolded Protein Response” (University of Michigan, priority 2002, published 2011)", "key": {"hsp-3": {"tested_on": "hsp-3", "test": "hsp-3 expression upon ER stress (Northern blot, quantitative Taqman RT-PCR)", "format": "in vivo, C. elegans", "conditions": "wild-type 1.5 day-old L2 larvae, 4 hours", "experimental": "(§1) For Northern analysis, mixed-stage nematodes grown in liquid culture were treated with 3 mM of DTT (Calbiochem) for up to 8 hours. Heat-shock treatment was performed at 30° C. for 1 hour. For single worm analysis, individual L2 larvae grown on plates were treated with 2.5 mM of DTT or 28 μg/ml of tunicamycin (Calbiochem) for 4 hours. To study survival to tunicamycin, gravid adults were allowed to lay eggs on plates containing tunicamycin (0 to 7.5 μg/ml) for 4 hours and then removed from the plates. Eggs were counted and studied 3 days later.\nTotal RNA preparation and Northern blot analysis was performed as described (Chen et al., 2000). The blot was hybridized sequentially with digoxigenin (DIG)-labeled DNA probes for hsp-3 and for 26S rRNA prepared with DIG-high prime labeling Kit (Roche).\nTaqman RT-PCR was performed as described by Heid et al. (1996). The lack of DNA contamination in RNA preparations was confirmed by a 1000-fold decrease in quantitative PCR yield when reverse transcriptase was omitted. A unique sequence in the 3′UTR of act-1 and act-3 was amplified using Taqman PCR (primers act-F/act-R and act-probe). The primers (hsp-3-F/hsp-3-R) and the hsp-3-probe probe were used for detecting hsp-3 transcripts. The primers (hsp-4-F and hsp-4-R) and the hsp-4-probe probe were used for detecting hsp-4 transcripts. […]"}, "hsp-4": {"tested_on": "hsp-4", "test": "hsp-4 expression upon ER stress (quantitative Taqman RT-PCR)", "format": "in vivo, C. elegans", "conditions": "wild-type 1.5 day-old L2 larvae, 4 hours", "experimental": "as §1\nTaqman RT-PCR was performed as described by Heid et al. (1996). The lack of DNA contamination in RNA preparations was confirmed by a 1000-fold decrease in quantitative PCR yield when reverse transcriptase was omitted. A unique sequence in the 3′UTR of act-1 and act-3 was amplified using Taqman PCR (primers act-F/act-R and act-probe). The primers (hsp-3-F/hsp-3-R) and the hsp-3-probe probe were used for detecting hsp-3 transcripts. The primers (hsp-4-F and hsp-4-R) and the hsp-4-probe probe were used for detecting hsp-4 transcripts. The relative expression of hsp-3 and hsp-4 was normalized to the average signals of act-1/act-3."}, "BiP mRNA [1]": {"tested_on": "BiP mRNA", "test": "Northern blot analysis of BiP mRNA in CHO cells", "format": "cell-based, Chinese hamster", "conditions": "2 μg/ml, 16 hours", "experimental": "(§2) FIG. 17E depicts a Northern blot analysis of BiP and Xbp1 mRNA in S2P-deficient cells. Wild-type and S2P-deficient CHO cells were treated with or without 2 μg/ml tunicamycin for 16 hours prior to harvesting total RNA for Northern blot analysis using hamster BiP, XBP1-u and β-actin cDNA as probes.\n(§3) Southern and Northern blot analysis followed standard procedures (Sambrook et al., 1989). [^32P]-labeled probes were prepared using a random prime labeling system (Amersham Pharmacia, Piscataway, N.J.). A 0.5-kb BamHI-XhoI fragment from the BS-mIRE1α targeting vector or a 3.6-kb EcoRI-XbaI fragment from pED-hIRE1α cDNA (Tirasophon et al., 2000) were used for Southern and Northern analysis, respectively. The probes for Northern analysis of mXbp1, BiP and GRP94 were a 0.94-kb XhoI fragment of pcDNA-mXbp1-u, the EcoRI-PstI fragment of hamster BiP (Ting et al., 1987), and a 146-bp PCR fragment of mouse GRP94 (from 142 to 287 of the coding region), respectively."}, "GRP94 mRNA": {"tested_on": "GRP94 mRNA", "test": "Northern blot analysis of GRP94 mRNA in MEFs", "format": "cell-based, mouse", "conditions": "10 μg/ml, 6 hr", "experimental": "(§4) FIGS. 12E and 12F depict a Northern blot analysis of wild-type and IRE1α-null MEFs. One blot was probed with [α-^32P]-labeled hamster BiP cDNA and β-actin cDNA (E) and another blot was probed with [α-^32P]-labeled mouse GRP94 DNA and β-actin cDNA (F).\nas §3"}, "BiP mRNA [2]": {"tested_on": "BiP mRNA", "test": "Northern blot analysis of BiP mRNA in MEFs", "format": "cell-based, mouse", "conditions": "tunicamycin for 6 hr", "experimental": "as §4, §3"}, "IRE1 [3]": {"tested_on": "IRE1", "test": "XBP1-EGFP reporter of IRE1 activation in murine embryonic fibroblast cells", "format": "cell-based", "excerpt": "(§5) COS-1 monkey cells were transfected by either diethylaminoethyl (DEAE)-dextran (Kaufman, 1997) or Calcium Phosphate-BES methods (Ausubel et al, 1999). Chinese hamster ovary (CHO) cells were transfected by either lipofectAMINE PLUS (Life Technology) or FuGENE6 (Roche). Murine embryonic fibroblasts (MEFs) were transfected by either FuGENE6 (Roche) or Effectine (QIAGEN). IRE1 activation was monitored by immunoprecipitation and western analysis.\n(§6) XBP1 splicing was also monitored by RT-PCR analysis of RNAs using primers designed to amplify the region encompassing the overlap between open reading frame 1 (ORF1) and ORF2 within XBP1 mRNA (see Lee et al., Genes and Dev. 2002). XBP1 splicing may also be monitored by assessing the expression of a reporter gene that is regulated by splicing of the XBP1 intron. The coding region of EGFP, Luciferase or β-galactosidase was fused to the mouse XBP1 ORF1 downstream of the XBP1 intron. Transcription of the construct is under control of the constitutively expressed CMV promoter. Therefore, expression of the XBP1-EGFP, XBP1-Luciferase or XBP1-β-galactosidase fusion protein is regulated by splicing of the XBP1 intron.\n(§7) At 48 hours after transfection, cells were treated with 10 ug/ml tunicamycin to inhibit N-linked glycosylation. […] Therefore, this construct is instrumental in monitoring IRE1 activation."}, "IRE1 [4]": {"tested_on": "IRE1", "test": "XBP1-EGFP reporter of IRE1 activation in COS-1 cells", "format": "cell-based, monkey", "conditions": "10 ug/ml, after 8 and 16 hours", "excerpt": "as §5, §6, §7"}, "Xbp1 mRNA [5]": {"tested_on": "Xbp1 mRNA", "test": "Northern blot analysis of Xbp1 mRNA in CHO cells", "format": "cell-based, Chinese hamster", "conditions": "2 μg/ml, 16 hours", "experimental": "as §2, §3"}, "Xbp1 mRNA [6]": {"tested_on": "Xbp1 mRNA", "test": "Northern blot analysis of Xbp1 mRNA in MEFs", "format": "cell-based, mouse", "conditions": "10 μg/ml, 6 hr", "experimental": "FIG. 15F depicts a Northern blot analysis of Xbp1 mRNA in IRE1α-null MEFs. Wild-type and IRE1α-null MEFs were treated with or without 10 μg/ml tunicamycin for 6 hr prior to harvesting total RNA for Northern blot analysis. The blots were probed with [α-^32P]-labeled 0.94-kb XhoI fragment of XBP1-u and [β-actin cDNA.\nas §3"}, "C. elegans": {"tested_on": "C. elegans", "test": "survival to tunicamycin (eggs laid on plates, studied after 3 days)", "format": "in vivo", "conditions": "for animals arrested at or prior to the L3 stage / animals matured to the L4 stage or older / dead animals: after 3 days", "excerpt": "Eggs from each strain were laid on plates containing different concentrations of tunicamycin, counted, and studied after 3 days. The number of eggs studied is listed above each column. The X-axis represents tunicamycin concentration. The total worm population was grouped into three fractions: animals that matured to L4 or older, animals that arrested at or prior to the L3 stage, and dead animals. Each fraction was plotted as the percentage of total eggs laid (Y-axis).\nas §1"}}}
{"molecule": "O[C@H](CS)[C@H](O)CS", "note": "(racemic) [DTT, dithiothreitol]", "values": [{"measurement": "hsp-3 induction", "setting": "hsp-3; DTT 2.5 mM", "result": "~9.3", "unit": "fold"}, {"measurement": "hsp-4 induction", "setting": "hsp-4; DTT 2.5 mM", "result": 61, "unit": "fold"}]}
{"molecule": "tunicamycin", "values": [{"measurement": "BiP mRNA induction", "setting": "BiP mRNA [1]; S2P-deficient CHO cells", "result": 2.6, "unit": "fold"}, {"measurement": "BiP mRNA induction", "setting": "BiP mRNA [1]; wild-type CHO cells", "result": 34, "unit": "fold"}, {"measurement": "GRP94 mRNA induction", "setting": "GRP94 mRNA; IRE1α-null MEFs", "result": 5.4, "unit": "fold"}, {"measurement": "GRP94 mRNA induction", "setting": "GRP94 mRNA; wild-type MEFs", "result": 6.7, "unit": "fold"}, {"measurement": "reduction of BiP mRNA induction in IRE1α-null MEFs compared with wild-type", "setting": "BiP mRNA [2]", "result": 10, "unit": "%"}, {"measurement": "hsp-3 induction", "setting": "hsp-3; tunicamycin 28 μg/ml", "result": "~3.9", "unit": "fold"}, {"measurement": "fluorescence of cells expressing the XBP1-EGFP construct", "setting": "IRE1 [3]; control murine embryonic fibroblast cells", "result": "intense fluorescsence"}, {"measurement": "fluorescence of cells expressing the XBP1-EGFP construct", "setting": "IRE1 [3]; murine embryonic fibroblast cells deleted in both IRE1α alleles", "result": "no fluorescence was detected"}, {"measurement": "fluorescence of cells transfected with the XBP1-EGFP construct", "setting": "IRE1 [4]", "result": "bright fluoresence"}, {"measurement": "Xbp1 mRNA induction", "setting": "Xbp1 mRNA [5]; S2P-deficient CHO cells", "result": 2.9, "unit": "fold"}, {"measurement": "Xbp1 mRNA induction", "setting": "Xbp1 mRNA [5]; wild-type CHO cells", "result": 3.1, "unit": "fold"}, {"measurement": "Xbp1 mRNA induction", "setting": "Xbp1 mRNA [6]; IRE1α-null MEFs", "result": 4.0, "unit": "fold"}, {"measurement": "Xbp1 mRNA induction", "setting": "Xbp1 mRNA [6]; wild-type MEFs", "result": 3.1, "unit": "fold"}, {"measurement": "hsp-4 induction", "setting": "hsp-4; tunicamycin 28 μg/ml", "result": 29, "unit": "fold"}, {"measurement": "animals arrested at or prior to the L3 stage", "setting": "C. elegans; IRE1(v33) mutants, 2 μg/ml", "result": 60, "unit": "%"}, {"measurement": "animals matured to the L4 stage or older", "setting": "C. elegans; IRE1(v33) mutants, 2 μg/ml", "result": 9, "unit": "%"}, {"measurement": "dead animals", "setting": "C. elegans; IRE1(v33) mutants, 2 μg/ml", "result": 31, "unit": "%"}, {"measurement": "animals arrested at or prior to the L3 stage", "setting": "C. elegans; N2, 5 μg/ml", "result": 29, "unit": "%"}, {"measurement": "animals matured to the L4 stage or older", "setting": "C. elegans; N2, 5 μg/ml", "result": 8, "unit": "%"}, {"measurement": "dead animals", "setting": "C. elegans; N2, 5 μg/ml", "result": 63, "unit": "%"}, {"measurement": "concentration at which growth of N2 animals was affected", "setting": "C. elegans; N2, plates with 0 to 7.5 μg/ml", "result": "≥ 5", "unit": "µg/mL"}, {"measurement": "animals arrested at or prior to the L3 stage", "setting": "C. elegans; PEK1(ok275) mutants, 2 μg/ml", "result": 31, "unit": "%"}, {"measurement": "animals matured to the L4 stage or older", "setting": "C. elegans; PEK1(ok275) mutants, 2 μg/ml", "result": 35, "unit": "%"}, {"measurement": "dead animals", "setting": "C. elegans; PEK1(ok275) mutants, 2 μg/ml", "result": 34, "unit": "%"}]}
